Data on five molecules can be found in patent US20200247859A1, “CONSTRUCT FOR EXPRESSING G PROTEIN-COUPLED RECEPTOR OR SUBUNIT THEREOF, AND USE OF SAID CONSTRUCT” (JAPAN TOBACCO INC., priority 2017, published 2020).

Like-named read-outs stand apart in the source and are kept apart here.

For assay [1], the target named is T2R38 subtype (bitter taste receptor) (Homo sapiens, UniProt P59533, A49P/I296V). Conditions: Gα-T2R38 stable expression cell line, FIG. 18. The protocol: A Gα-T2R38 expression vector comprising a gene encoding a T2R38 subtype (bitter taste receptor) instead of the gene encoding T2R16 of Gα-T2R16 in Examples 1 and 2 was prepared, and thus a stable expression cell line was prepared by the same method as in Examples 1 and 2.
Subsequently, using the same method as in Example 3, the response to a known T2R38 agonist, 6-n-propylthiouracil (1000 μM, 300 μM), was measured. As a control, a cell line (HEK293T) not incorporating any Gα-T2R38 expression vector was used.

Assay [2] deals with T1, olfactory receptor (OR3A1) (Homo sapiens, UniProt P47881).
T1 construct: N-terminal 21 amino acids of human rhodopsin (Rho); expressed in transfected cells; host or cells: HEK293T, transient, pcDNA vectors
T1 sequence (P47881 2-315 limits assumed): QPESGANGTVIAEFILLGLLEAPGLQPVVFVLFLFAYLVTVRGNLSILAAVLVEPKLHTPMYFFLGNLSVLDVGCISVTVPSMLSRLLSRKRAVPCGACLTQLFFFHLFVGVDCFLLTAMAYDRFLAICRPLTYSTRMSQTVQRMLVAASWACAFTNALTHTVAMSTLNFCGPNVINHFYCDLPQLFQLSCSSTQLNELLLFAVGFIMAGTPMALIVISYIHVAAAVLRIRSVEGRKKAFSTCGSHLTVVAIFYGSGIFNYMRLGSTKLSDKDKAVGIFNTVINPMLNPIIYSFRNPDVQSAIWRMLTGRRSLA
As to the kind of experiment: cAMP response in cells transiently expressing olfactory receptor (cAMP-GloMax luminescence). It is filed as cell-based. To be noted: FIG. 20. The protocol:
Genes encoding Rho-OR3A1, in which N-terminal 21 amino acids (Rho) of human rhodopsin had been added to the N-terminus of OR3A1, and Gαolf were introduced together with IRES into pcDNA vectors by the same method as in Example 1, thereby preparing expression vectors, OR3A1-Gαolf and Gαolf-OR3A1. Using these expression vectors, transiently expressing HEK293T cells were prepared by the same method as in Example 4. As a control, HEK293T cells prepared by separate introduction of each gene of OR3A1 and Gαolf into pcDNA and then double-gene transfer thereof were used.
Next, helional, a known agonist for OR3A1, was added onto the prepared cells (100 μM, 30 μM). The amount of cAMP produced in association with the response of OR3A1 20 minutes after the addition of helional was detected by luminescence measurement using a cAMP-GloMax assay kit (Promega).

The target in another assay is T2, T2R43 (Homo sapiens, UniProt P59537, H212R/W35S).
T2 construct: expressed in transfected cells
T2 sequence (P59537 1-309 W35S/H212R): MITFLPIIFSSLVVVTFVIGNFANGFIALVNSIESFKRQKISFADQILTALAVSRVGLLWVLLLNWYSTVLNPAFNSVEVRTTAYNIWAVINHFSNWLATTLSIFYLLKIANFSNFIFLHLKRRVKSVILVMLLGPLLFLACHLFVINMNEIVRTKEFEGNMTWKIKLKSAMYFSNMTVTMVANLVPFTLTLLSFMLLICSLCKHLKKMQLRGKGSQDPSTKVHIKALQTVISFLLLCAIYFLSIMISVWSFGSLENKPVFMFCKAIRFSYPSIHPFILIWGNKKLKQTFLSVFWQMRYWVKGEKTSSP
Description: Response of Gα-T2R43 stable expression cell line to agonist (Fluo-8 calcium fluorescence). Conditions: Gα-T2R43 compared with T2R43-Gα; agonist 100 μM or 300 μM; FIG. 3. In kind it is cell-based. The method, then: (§1) Specifically, by the same method as in Example 1 and Example 2, a Gα-T2R40 stable expression cell line (containing Gα16/Gαgust43-IRES-ssr/T2R40N5) and a Gα-T2R43 stable expression cell line (containing Gα16/Gαgust43-IRES-ssr/T2R43/V5) were prepared.
(§2) The Gα-T2R40 stable expression cell line and the Gα-T2R43 stable expression cell line were prepared by the same method as in Example 2. […] The results are depicted in FIG. 3.

A further assay concerns the target T3, T2R40 (Homo sapiens, UniProt P59535).
T3 construct: expressed in transfected cells
Description: Response of Gα-T2R40 stable expression cell line to agonist (Fluo-8 calcium fluorescence). In kind it is cell-based. To be noted: Gα-T2R40 compared with T2R40-Gα; agonist 100 μM or 300 μM; FIG. 3. The protocol:
as §1, §2

Assay [3] concerns the target T4, T2R16 (Homo sapiens, UniProt Q9NYV7).
T4 construct: expressed in transfected cells
T4 sequence (Q9NYV7 1-291): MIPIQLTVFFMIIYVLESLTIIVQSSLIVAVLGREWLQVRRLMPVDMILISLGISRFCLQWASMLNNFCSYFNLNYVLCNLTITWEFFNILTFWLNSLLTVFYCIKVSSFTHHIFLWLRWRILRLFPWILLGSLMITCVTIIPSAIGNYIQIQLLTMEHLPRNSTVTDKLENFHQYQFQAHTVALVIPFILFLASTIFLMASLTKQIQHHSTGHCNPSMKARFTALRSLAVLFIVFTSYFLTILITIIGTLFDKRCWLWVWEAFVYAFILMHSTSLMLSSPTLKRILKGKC
Description: Response of T2R16 transiently expressing cells to bitter substance. In kind it is cell-based. To be noted: transient Gα-T2R16 in HEK293T compared with T2R16-Gα, co-transfection and Gα stable; FIG. 4. The method, then: Into HEK293T seeded at 2×10^4 in a 96-well plate, 0.1 μg of each of the Gα-T2R16 and the T2R16-Gα plasmid vectors was introduced using lipofectamine (registered trademark) 3000. After 30 hours of culture, response intensity to salicin was measured using the same technique as in Example 3 (1) (maximum fluorescence intensity during 40 seconds after the addition of salicin). Note that drug resistance screening with hygromycin B as in Example 2 was not performed (transiently expressing cells).
Furthermore, as a comparative example, the following cells were also prepared other than T2R16-Gα expressing cells, and then the response to salicin was measured:
cells (cotransfection), prepared by simultaneous gene transfer of a total of 0.1 μg of a Gα16/Gαgust43gust expression vector and a ssr-T2R16-V5 expression vector comprising a Gα16/Gαgust43 expression gene and a ssr-T2R16-V5 expression gene, respectively, via incorporation thereof into pcDNA3.1 Hygro(+) vectors for transient expression of the genes; and
cells (Gα stable), prepared by the gene transfer of 0.1 μg of a ssr-T2R16-V5 expression vector into a Gα16/Gαgust43 stable expression cell line (subjected in advance to drug resistance screening using hygromycin B) prepared by the same technique as in Example 2 for transient expression of the genes.

Assay [4] addresses T5, human bitter taste receptor (T2R16) (Homo sapiens, UniProt Q9NYV7).
T5 construct: N-terminal 45 amino acids of rat somatostatin receptor 3 (ssr3); expressed in transfected cells
T5 sequence (Q9NYV7 1-291): T4 sequence (Q9NYV7 1-291)
As to the kind of experiment: Response of T2R16 stable expression cell line to bitter substance (Fluo-8 calcium fluorescence). It is filed as cell-based. Conditions: salicin 10, 3, 1, 0.3 or 0.1 mM, FIG. 2. The protocol:
Specifically, into 1×10^6 cells of the human embryonic kidney cell line HEK293T (obtained from RIKEN) seeded in a culture vessel, 5 μg of each of the Gα-T2R16 and T2R16-Gα plasmid vectors prepared in Example 1 was introduced through the use of lipofectamine (registered trademark) 3000 (Thermo Fisher Scientific Inc.). After 48 hours of culture, drug resistance screening was performed by adding 100 μg/mL hygromycin B to the medium and then culturing for about 15 days. Cells that had acquired drug resistance were cloned by seeding these cells in each well of a 96-well plate at one cell per well. After about 10 days of culture, a stable expression cell line was obtained.
The T2R16 stable expression cell line prepared based on the method described in Example 2 was seeded at 2×10^4 cells/well in a 96-well plate. The culture media for cells contained a green fluorescent calcium indicator Fluo-8 (registered trademark) (AAT Bioquest, Inc.), and the uptake of Fluo-8 into the cell lines was examined. Fluo-8 (registered trademark) is suitable for detection of intracellular calcium dynamics and is an indicator of GPCR activity.
Cells incorporating Fluo-8 (registered trademark) were excited at 490 nm and the fluorescence intensity at 514 nm was measured. […] The results are depicted in FIG. 2.

Assay [5] addresses T4, T2R16. Description: Response intensity before and after cryopreservation of T2R16 stable expression cell line. It is filed as cell-based. To be noted: FIG. 7. The protocol:
Gα-T2R16 in this example was prepared in the same manner as in the case of the Gα-T2R16 stable expression cell line in Example 2, but pEAK10 (Edge biosystem, Inc.) was used as an expression vector and “ssr/T2R16” (without V5) was inserted instead of “ssr/T2R16/V5”. Further, drug resistance screening was performed with 1 μg/mL puromycin instead of hygromycin B.
As a comparative example, into the Gα16/Gαgust43 stable expression cell line (subjected in advance to drug resistance screening with puromycin) prepared using the same technique as in Example 2, 5 μg of ssr-T2R16 expression vector was introduced and then drug resistance screening was performed using puromycin. The thus prepared stable expression cell line (Double stable) stably expressing Gα16/Gαgust43+T2R16 was used.
Before and after cryopreservation of the cell line, the response intensity to salicin (1 or 0.1 mM) was examined in the same manner as in Example 3. For cryopreservation, CELLBANKER (Nippon Zenyaku Kogyo Co., Ltd.) was used, and cells were stored under liquid nitrogen for 1 month. The temperature for the cryopreserved cells was brought back to normal temperature, cells were passaged at least twice, and then the response intensity after cryopreservation was measured. The results are depicted in FIG. 7.

Sequence of T2R38 subtype (bitter taste receptor) (P59533 whole entry A49P/I296V): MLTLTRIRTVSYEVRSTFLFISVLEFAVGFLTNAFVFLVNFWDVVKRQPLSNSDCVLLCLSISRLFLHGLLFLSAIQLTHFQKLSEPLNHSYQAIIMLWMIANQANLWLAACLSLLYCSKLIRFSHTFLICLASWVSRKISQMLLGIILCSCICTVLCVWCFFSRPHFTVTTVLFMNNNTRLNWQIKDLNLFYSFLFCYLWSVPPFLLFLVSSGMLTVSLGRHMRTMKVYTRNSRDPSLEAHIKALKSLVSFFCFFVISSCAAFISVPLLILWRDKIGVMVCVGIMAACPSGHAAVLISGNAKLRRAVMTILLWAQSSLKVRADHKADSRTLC
T3 sequence (P59535 whole entry): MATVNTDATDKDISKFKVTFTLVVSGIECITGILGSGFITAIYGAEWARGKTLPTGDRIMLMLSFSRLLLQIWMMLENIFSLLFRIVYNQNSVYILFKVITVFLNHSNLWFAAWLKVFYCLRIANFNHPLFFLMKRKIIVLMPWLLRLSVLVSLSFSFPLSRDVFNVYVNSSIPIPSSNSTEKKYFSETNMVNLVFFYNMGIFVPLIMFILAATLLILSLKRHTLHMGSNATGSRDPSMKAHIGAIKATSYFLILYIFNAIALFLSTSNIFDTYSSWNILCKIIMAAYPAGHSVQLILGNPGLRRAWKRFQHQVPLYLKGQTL

Consider `CCCc1cc(=O)[nH]c(=S)[nH]1` [6-n-propylthiouracil], for which the “response to T2R38 agonist” value in assay [1] (300 μM) and in assay [1] (1000 μM) was “exhibited” throughout.
For `CC(C=O)Cc1ccc2c(c1)OCO2` (centres unmarked) [helional], the “amount of cAMP produced in association with the response of OR3A1” value in assay [2] (HEK293T cells with Gαolf-OR3A1 expression vector, 100 μM helional, 20 minutes after addition) is reported as “increase in cAMP”; in assay [2] (HEK293T cells with OR3A1-Gαolf expression vector, helional 100 μM, 30 μM, 20 minutes), “no response”; in assay [2] (HEK293T cells with OR3A1 and Gαolf genes introduced separately, helional 100 μM, 30 μM, 20 minutes), “no response”.
In the case of `C=C[C@H]1C[N@@]2CC[C@H]1C[C@H]2[C@H](O)c1ccnc2ccc(OC)cc12` [quinine], the “response intensity of T2R43 to the agonist” value at T2R43 is on record as “higher response intensity”.
For `OC(CCCN1CCCCC1)(c1ccccc1)c1ccccc1` [diphenydol], the “response intensity of T2R40 to the agonist” value at T2R40 is “higher response intensity”.
Take `OCc1ccccc1O[C@@H]1O[C@H](CO)[C@@H](O)[C@H](O)[C@H]1O` [salicin]: at T2R16 [3], the “response intensity to salicin” value is on record as “response intensity higher”. For the same molecule, the figures for the “response intensity of T2R16 to the agonist (increase rate of maximum fluorescence intensity)” value in assay [4] (HEK293T stable cell line containing the Gα-T2R16 plasmid) and in assay [4] (cell line containing the comparative T2R16-Gα plasmid) were “exhibited responses” and “almost no response”, respectively. Besides, the “ratio of response intensity after freezing/response intensity before freezing” value on T2R16 [5] (Gα-T2R16 stable expression cell line (pEAK10), salicin 0.1 mM, 1 month under liquid nitrogen) was no less than 0.8; on T2R16 [5] (Gα-T2R16 stable expression cell line (pEAK10), salicin 1 mM, 1 month under liquid nitrogen), no less than 0.8; at T2R16 [5] (comparative Double stable cell line (Gα16/Gαgust43+T2R16), salicin 0.1 mM) it was no more than 0.4; on T2R16 [5] (comparative Double stable cell line (Gα16/Gαgust43+T2R16), salicin 1 mM) it was “less than 0.6”.
